In patent publication US20130143869A1, “USE OF A CATIONIC AMPHIPHILIC DRUG FOR THE PREPARATION OF A FORMULATION FOR THE REDUCTION OF SUBCUTANEOUS ADIPOSE TISSUE” (Merz Pharma GmbH & CO. KGaA, priority 2010, published 2013):
Structures can show the parent of a compound that is named as a salt.

Columns and labels:
Human white adipocytes = experiment: Apoptosis/necrosis detection, Annexin V-FITC/PI flow cytometry; assay type: cell-based
Excerpt: The apoptotic program is characterized by certain morphologic features. Loss of plasma membrane asymmetry is a well established indicator for apoptotic cells. In apoptotic cells, the membrane phospholipid phosphatidylserine (PS) is translocated from the inner to the outer leaflet of the plasma membrane, thereby exposing PS to the external environment. In general, this PS translocation is preceded by caspase activation. Annexin V labelled with FITC is a Ca^2+ dependent phospholipid-binding protein with high affinity for PS and binds to cells with externalized PS. Cells stained with Annexin V*FITC are therefore considered in an early apoptotic stage.
Staining with Annexin V-FITC is typically used in conjunction with a vital dye such as propidium iodide (PI) to allow discrimination between early apoptotic and necrotic cells. Necrotic dying cells are PI positive only. Cells that are viable are Annexin V and PI negative; cells that entered apoptosis are Annexin V positive and PI negative and cells that are in post apoptotic and/or necrotic phase are both Annexin V and PI positive.
Human white adipocytes that had been differentiated in vitro from pre-adipocytes as describe above were used. Measurements were performed after 5 hrs to catch early apoptotic/necrotic events and after 24 hrs and 48 hrs for later stages. Naringenin at 500 μM (reported to induce apoptosis in adipocytes) was used as positive control and media plus solvent was used as negative control. Each compound was tested in three different concentrations. […] Two more concentrations, one below and one above the IC50 were added.
Flow cytometry was performed with a dual laser FC500. After completion of the staining procedure, tubes were grouped into a FC500 carousel for semi-automated data acquisition. Cells were first acquired in “Setup” mode to tune the parameters FS, SS, FL1 and FL2. After completion of the setup, baseline compensation was switched on and cells were acquired. Cells were acquired without life-gate but using FS threshold to exclude debris. All cells were acquired using individually corrected settings.
After completion of data acquisition, analysis was done using the CXP software. If necessary, software-based post acquisition compensation was performed to fine-correct for fluorescence overlap not adjusted for during the acquisition phase. Quadrant markers were set based on the negative controls.

human adipocyte cells [1] = experiment: Membrane integrity: LDH release from human adipocytes (LDH assay); assay type: cell-based; conditions: Example 1, 48 hrs, relative to Triton-x 100 maximal LDH release
Method: (§1) HWP were obtained in passage two and differentiated in vitro to mature adipocytes. Briefly, cells were initially cultured in preadipocyte growth medium at 37° C. and 5% CO2 to 70-80% confluency. Then, cells were seeded at 40,000 cells/ml into 96-well flat bottom tissue culture plates and incubated overnight to allow attachment. Differentiation was initiated by changing the medium to preadipopcyte differentiation medium for an additional 72 hrs. After differentiation was induced, the medium was replaced by adipocyte nutrition medium that was refreshed every 2-3 days over a period of 14 days until termination of differentiation. Differentiation status was checked via nile red staining of control cells.
(§2) For the cytotoxicity assays in this study pre-adipocytes were seeded at 40,000 cells/ml into a 96-well microtiter flat bottom plate. The test items were prepared in separate plates starting with the double concentrated maximal test concentration followed by a 1:2 serial dilution (Chloroquine and Fluoxetine 1:3) and then added to the cells. The test items were tested at 6 replicates/concentration. Each plate included negative controls (media plus solvent, 6 replicates), a drug interference control (all concentrations, duplicates), a background control (14 replicates), a positive (=cytotoxic) control (6 replicates doxorubicin, 1 μM final) and a positive control for maximal LDH-release (2 replicates, 2% Triton-x 100 final).
(§3) Relative cell viability was determined after 48 hrs exposure based on metabolic activity (i.e. resazurin conversion). Using a Victor^3 1420 Multilabel Counter, the resazurin conversion to the fluorescent resorufin by metabolically active cells was recorded at 560Ex/590Em. Membrane integrity was measured after 6 hrs and 48 hrs and the enzymatic activity of released LDH in the cell supernatant after 30 min of incubation at 492 nmabsorption/690 nmreference by a spectrophotometer. The volume withdrawn from the cultures for the LDH-assay was not replaced to keep cells in a less disturbed environment. The assay was conducted in a multiplexed format.
For the dose-response relationship, absolute absorption (OD treated wells−background) was plotted against the test item concentrations representing LDH leakage from the cells. For a better estimation of the test items' potential influencing the membrane integrity, relative, maximal LDH release in percent (see Table 2) was also calculated according to the following formula: […]
(§4) The effects on cytotoxicity in human adipocyte cells of a further 9 compounds were tested. The experimental set-up was identical to the one in example 1.

subcutaneous fat-tissue = conditions: rats
human adipocyte cells [2] = experiment: Cytotoxicity assay: metabolic activity (resazurin conversion) of human adipocytes; assay type: cell-based; conditions: Homo sapiens, Adipocyte, read-out: IC50 (metabolic activity after 48 hrs); Example 1, 48 hrs exposure, resazurin
Method: as §1
The test items 1 to 8 were prepared according to Table 1 to yield respective stock solutions. Said stock solutions were further diluted in assay media to obtain the double concentrated working solutions, which were subsequently diluted 1:2 in the final assay. […] Deoxycholate Na was selected as “reference compound”.
as §2, §3
In order to derive meaningful IC50 values from the primary data, the entire biological window of activity ranging from 0% to 100% viability should be covered and the resolution has to be sufficient. To improve data quality, the serial dilution factor used in previous experiments was reduced to a 1:2 and 1:3 dilution. […] IC50 (half maximal inhibitory concentration, calculated via Sigma Plot 10) values were determined for each test substance 1 to 8.
as §4

[3] = 1 mg/mL, 300 μL s.c. Day 1, 7, 28, histology day 29

CNCCC(Oc1ccc(C(F)(F)F)cc1)c1ccccc1 (centres unmarked) [Test substance 4, Fluoxetine HCl]
primary mode of cell death (Human white adipocytes): fast and strong apoptosis induction
Early Apoptosis [A-V*/PI*] (Human white adipocytes; 40 μM, 5 hrs): 26.9
Necrosis/ Late Apoptosis [A-V*/PI*] (Human white adipocytes; 40 μM, 5 hrs): 0
Necrosis/ Late Apoptosis [A-V*/PI*] (Human white adipocytes; 40 μM, 24 hrs): 2.6
Normal [A-V*/PI] (Human white adipocytes; 40 μM, 24 hrs): 49.9
Early Apoptosis [A-V*/PI*] (Human white adipocytes; 40 μM, 48 hrs): 22.7
Necrosis/ Late Apoptosis [A-V*/PI*] (Human white adipocytes; 40 μM, 48 hrs): 7.7
Early Apoptosis [A-V*/PI*] (Human white adipocytes; 60 μM, 5 hrs): 58.5
Necrosis/ Late Apoptosis [A-V*/PI*] (Human white adipocytes; 60 μM, 5 hrs): 1.3
Normal [A-V*/PI] (Human white adipocytes; 60 μM, 5 hrs): 45.2
Early Apoptosis [A-V*/PI*] (Human white adipocytes; 60 μM, 24 hrs): 78.7
Necrosis/ Late Apoptosis [A-V*/PI*] (Human white adipocytes; 60 μM, 24 hrs): 5.5
Normal [A-V*/PI] (Human white adipocytes; 60 μM, 24 hrs): 14.7
Early Apoptosis [A-V*/PI*] (Human white adipocytes; 60 μM, 48 hrs): 37.9
Necrosis/ Late Apoptosis [A-V*/PI*] (Human white adipocytes; 60 μM, 48 hrs): 19.8
Normal [A-V*/PI] (Human white adipocytes; 60 μM, 48 hrs): 42.3
cells apoptotic (Human white adipocytes; 80 μM, 5 h): more than 50%
Necrosis/ Late Apoptosis [A-V*/PI*] (Human white adipocytes; 80 μM, 5 hrs): 1.6
Normal [A-V*/PI] (Human white adipocytes; 80 μM, 5 hrs): 47
Early Apoptosis [A-V*/PI*] (Human white adipocytes; 80 μM, 24 hrs): 41.9
Necrosis/ Late Apoptosis [A-V*/PI*] (Human white adipocytes; 80 μM, 24 hrs): 44.1
Normal [A-V*/PI] (Human white adipocytes; 80 μM, 24 hrs): 14
Necrosis/ Late Apoptosis [A-V*/PI*] (Human white adipocytes; 80 μM, 48 hrs): 42.2
Normal [A-V*/PI] (Human white adipocytes; 80 μM, 48 hrs): 2.7
apoptosis/necrosis induction in human adipocytes (in words) (Human white adipocytes; 5, 24, 48 hrs, concentrations as in Table 4): rapidly induced strong apoptosis
Rel. max. LDH release [%] 48 hrs (human adipocyte cells [1]): 101.0%
degree of histological changes at administration sites (subcutaneous connective and/or adipose tissue) (subcutaneous fat-tissue; [3]): minimal or mild in degree
edema at administration sites (subcutaneous fat-tissue; [3]): minimal or mild
fibrosis at administration sites (subcutaneous fat-tissue; [3]): minimal or mild
haemorrhage at administration sites (subcutaneous fat-tissue; [3]): minimal or mild
infiltrates of granulocytes at administration sites (subcutaneous fat-tissue; [3]): minimal
infiltrates of mononuclear cells at administration sites (subcutaneous fat-tissue; [3]): minimal to moderate
single cell death of inflammatory cells and/or connective tissue at administration sites (subcutaneous fat-tissue; [3]): minimal
adipocytolysis (concluded from inflammatory reaction) (subcutaneous fat-tissue; repetitive s.c. injection): causes adipocytolysis
IC50 (human adipocyte cells [2]): 52 µM
